Several values for one entry are separate records, joined by “and”; a condition that tells them apart may be missing. Equal values may be shown once. Where a name gives a salt, the structure may show the parent alone.

One assay deals with human SCD1 (Homo sapiens (Human), UniProt O00767). Briefly: Yeast growth assay, strain expressing human SCD1 as the sole desaturase (reduced growth as surrogate for SCD inhibition). The class given is cell-based. The following applies: yeast with OLE1 deleted expressing human SCD1 from a plasmid; growth read as OD600 after 40 h at 30° C.; top drug concentration 33.3 μM. A digest of the protocol: (§1)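 Yeast lacking OLE1 depend on plasmid-borne human SCD1 or SCD5 and are tested in SD-Ura medium without oleic/palmitoleic acid or Tween.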

The target in another assay is human SCD5 (Homo sapiens (Human), UniProt Q86SK9). Description: Yeast growth assay, strain expressing human SCD5 as the sole desaturase (reduced growth as surrogate for SCD inhibition). The class given is cell-based. The following applies: yeast with OLE1 deleted expressing human SCD5 from a plasmid; growth read as OD600 after 40 h at 30° C.; top drug concentration 33.3 μM. A digest of the protocol:
as §1

Chain of human SCD1 (O00767 whole entry): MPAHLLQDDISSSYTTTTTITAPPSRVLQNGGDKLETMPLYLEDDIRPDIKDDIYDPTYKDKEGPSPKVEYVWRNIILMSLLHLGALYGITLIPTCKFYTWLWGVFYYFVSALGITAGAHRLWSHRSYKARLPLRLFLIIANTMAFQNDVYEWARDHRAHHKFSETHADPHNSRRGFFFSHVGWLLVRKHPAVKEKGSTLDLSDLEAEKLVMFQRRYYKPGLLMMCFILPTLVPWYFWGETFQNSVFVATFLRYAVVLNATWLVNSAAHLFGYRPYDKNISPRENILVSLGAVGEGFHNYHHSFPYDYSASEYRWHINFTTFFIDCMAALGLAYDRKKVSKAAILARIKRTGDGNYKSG
Chain of human SCD5 (Q86SK9 whole entry): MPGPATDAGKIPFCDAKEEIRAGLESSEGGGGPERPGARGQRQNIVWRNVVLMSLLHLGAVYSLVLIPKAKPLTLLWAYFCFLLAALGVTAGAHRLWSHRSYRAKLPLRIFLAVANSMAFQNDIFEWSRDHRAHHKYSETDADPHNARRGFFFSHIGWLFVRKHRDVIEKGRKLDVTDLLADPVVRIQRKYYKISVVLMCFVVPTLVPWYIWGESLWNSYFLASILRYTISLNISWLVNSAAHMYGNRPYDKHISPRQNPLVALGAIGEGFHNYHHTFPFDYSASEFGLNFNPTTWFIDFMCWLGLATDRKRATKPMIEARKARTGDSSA

Regarding `O=C(c1cc(-c2ccc3c(c2)OCO3)on1)N1CCC(Oc2ccccc2)CC1` [Compound 298, [5-(1,3-benzodioxol-5-yl)isoxazol-3-yl]-(4-phenoxy-1-piperidyl)methanone], the IC50 is 6.22 µM against human SCD1 and 2.92 µM on human SCD5.

For `CNC(=O)c1ccc(-c2cc(C(=O)N3CC=C(c4ccccc4)CC3)no2)cc1` [Compound 319], the IC50 against human SCD1 and on human SCD5 was over 45 µM each time.

Take `COc1ccc(-c2cc(NC(=O)[C@@H]3CCCN3c3ccccc3)on2)cc1` [Compound 445]: the IC50 against human SCD1 and on human SCD5 was over 45 µM each time.

For the molecule `N#Cc1ccc(-c2cc(C(=O)Nc3cnn(Cc4ccccc4)c3)no2)cc1` [Compound 128], the IC50 is 0.98 µM against human SCD1 and over 45 µM on human SCD5.

On to `O=C(Nc1ccnc(Oc2ccccc2)c1)c1cc(-c2ccccc2)on1` [Compound 312], for which the IC50 on human SCD1 and against human SCD5 was over 45 µM throughout.

For `O=C(Nc1cnn(Cc2ccccc2)c1)c1cc(-c2cccc(F)c2)on1` [Compound 144], the IC50 against human SCD1 and on human SCD5 was over 45 µM each time.

Regarding `O=C(c1cc(-c2ccccc2)on1)N1CCC(O)(c2ccccc2)CC1` [Compound 296], the IC50 at human SCD1 and against human SCD5 was over 45 µM each time.

As for `O=C(c1cc(-c2ccccc2)on1)N1CCCC1Cc1ccccc1` (centres unmarked) [Compound 436], the IC50 was over 45 µM on human SCD1 and 8.9 µM at human SCD5.

`O=C(Nc1cnn(Cc2ccccc2)c1)c1cc(-c2cccc3cn(C4COC4)nc23)on1` [Compound 95]: the IC50 against human SCD1 and on human SCD5 was over 45 µM each time.

Turning to `O=C(c1cc(-c2ccc3c(c2)OCO3)on1)N1C[C@H](O)C[C@H]1c1ccccc1` [Compound 422], the 50% inhibitory concentration (IC50) against human SCD1 and on human SCD5 was over 45 µM in each case.

Take `O=C(c1cc(-c2ccc3c(c2)OCO3)on1)N1CCCc2ccccc21` [Compound 261]: the half-maximal inhibitory concentration (IC50) on human SCD1 and at human SCD5 was over 45 µM each time.

On to `NC(=O)c1cc(C(=O)Nc2cnn(Cc3cccc(F)c3)c2)no1` [Compound 162], for which the IC50 against human SCD1 and against human SCD5 was over 45 µM each time.

Turning to `Cc1nn(Cc2ccccc2)c(C)c1NC(=O)c1cc(-c2ccco2)on1` [Compound 2], the results for the IC50 at human SCD1 and against human SCD5 were 32.8 µM and 38.6 µM, respectively.

On to `COc1ccc(C2CCCN2C(=O)c2cc(-c3ccc(F)c(F)c3)on2)cc1` (centres unmarked) [Compound 378], for which the IC50 on human SCD1 and against human SCD5 was over 45 µM throughout.

Take `CNC(=O)c1cccc(-c2cc(C(=O)N3CCC(c4ccccc4)CC3)no2)c1` [Compound 303]: the half-inhibitory concentration (IC50) at human SCD1 and at human SCD5 was over 45 µM in each case.

Take `Cc1nnc(-c2cc(C(=O)Nc3cnn(Cc4ccccc4)c3)no2)o1` [Compound 165]: the IC50 against human SCD1 and on human SCD5 was over 45 µM in each case.

As to `O=C(Nc1cnn(Cc2cccc(F)c2)c1)c1cc(-c2nncs2)on1` [Compound 174], the IC50 at human SCD1 was 8.2 µM; at human SCD5, over 45 µM.

With `Cc1nn(C)c2cc(-c3cc(C(=O)N4CCCC4c4ccnnc4)no3)ccc12` (centres unmarked) [Compound 458], the IC50 against human SCD1 and against human SCD5 was over 45 µM each time.

For the molecule `COc1ccc(C2CCCN2C(=O)c2cc(-c3ccc4ocnc4c3)on2)cc1` (centres unmarked) [Compound 400], the IC50 on human SCD1 and on human SCD5 was over 45 µM in each case.

For `COc1cccnc1C1CCCN1C(=O)c1cc(-c2ccc3c(c2)OCO3)on1` (centres unmarked) [Compound 437], the IC50 against human SCD1 and against human SCD5 was over 45 µM each time.

With `Cc1csc(-c2cc(C(=O)Nc3cnn(Cc4ccccc4)c3)no2)n1` [Compound 143], the IC50 at human SCD1 and against human SCD5 was over 45 µM in each case.

For the molecule `O=C(c1cc(-c2ccc3c(c2)OCO3)on1)N1CCCC1c1ncccc1F` (centres unmarked) [Compound 457], the IC50 at human SCD1 and on human SCD5 was over 45 µM each time.

With `Cc1nnc(-c2cc(C(=O)Nc3cnn(Cc4cccc(F)c4)c3)no2)o1` [Compound 179], the IC50 at human SCD1 and against human SCD5 was over 45 µM each time.

Take `O=C(c1cc(-c2cccnc2)on1)N1CCC(c2ccccc2)CC1` [Compound 315, (4-phenylpiperidin-1-yl)(5-(pyridin-3-yl)isoxazol-3-yl)methanone, trifluoroacetic acid salt]: the results for the IC50 against human SCD1 and against human SCD5 were 3.84 µM and 1.06 µM, respectively.

In the case of `O=C(c1cnn(Cc2ccncc2)c1)c1cc(-c2ccccc2)on1` [Compound 138], the concentration for half-maximal inhibition (IC50) against human SCD1 and against human SCD5 was over 45 µM in each case.

Regarding `O=C(c1cc(-c2ccc3c(c2)OCO3)on1)N1CCCc2c(F)cccc21` [Compound 263], the IC50 against human SCD1 and on human SCD5 was over 45 µM each time.

In the case of `O=C(Nc1cnn(Cc2cccc(F)c2)c1)c1cc(-c2ccns2)on1` [Compound 81, N-(1-(3-fluorobenzyl)-1H-pyrazol-4-yl)-5-(isothiazol-5-yl)isoxazole-3-carboxamide], the IC50 against human SCD1 is 0.232 µM; at human SCD5, 1.6 µM.

On to `O=C(c1cc(-c2ccccc2)on1)N1CCC(Oc2ccccc2)CC1` [Compound 288, (4-phenoxy-1-piperidyl)-(5-phenylisoxazol-3-yl)methanone], for which the results for the IC50 on human SCD1 and at human SCD5 were over 45 µM and 4.16 µM, respectively.

`O=C(c1cc(-c2ccc3c(c2)OCO3)on1)N1CCC1c1ccccc1` (centres unmarked) [Compound 204, (5-(benzo[d][1,3]dioxol-5-yl)isoxazol-3-yl)(2-phenylazetidin-1-yl)methanone]: the IC50 was 30 µM and 33.9 µM on human SCD1; 3.5 µM and 2.28 µM against human SCD5.

For the molecule `O=C(Nc1cnn(CC2CCOC2)c1)c1cc(-c2ccccc2)on1` (centres unmarked) [Compound 50], the 50% inhibitory concentration (IC50) was 25.5 µM on human SCD1 and over 45 µM against human SCD5.

Consider `O=C(c1cc(-c2ccc3c(c2)OCO3)on1)N1CCC1c1ccc(F)cc1` (centres unmarked) [Compound 223, [5-(1,3-benzodioxol-5-yl)isoxazol-3-yl]-[2-(4-fluorophenyl)azetidin-1-yl]methanone], for which the results for the half-maximal inhibitory concentration (IC50) at human SCD1 and on human SCD5 were over 45 µM and 3.26 µM, respectively.

`NC(=O)c1cc(C(=O)Nc2cnn(Cc3ccccc3)c2)no1` [Compound 48]: the IC50 against human SCD1 and at human SCD5 was over 45 µM throughout.

As to `O=C(Nc1cnn(Cc2ccc(F)cc2)c1)c1cc(-c2ccccc2)on1` [Compound 112], the IC50 at human SCD1 and against human SCD5 was over 45 µM in each case.

Regarding `COc1cc(C2CCCN2C(=O)c2cc(-c3ccc4c(c3)OCO4)on2)on1` (centres unmarked) [Compound 411], the IC50 at human SCD1 is 30 µM; against human SCD5, over 45 µM.

Turning to `N#Cc1cc(F)cc(Cn2cc(NC(=O)c3cc(-c4ccccc4)on3)cn2)c1` [Compound 98], the IC50 against human SCD1 and at human SCD5 was over 45 µM each time.

Consider `O=C(Nc1cnn(-c2ccccc2)c1)c1cc(-c2ccco2)on1` [Compound 33], for which the concentration for half-maximal inhibition (IC50) against human SCD1 and at human SCD5 was over 45 µM in each case.

As to `O=C(c1cc(-c2ccc3c(c2)OCO3)on1)N1CCCC1c1ccncc1` (centres unmarked) [Compound 363], the IC50 against human SCD1 and against human SCD5 was over 45 µM each time.

The IC50 is the midpoint of a concentration-inhibition curve.

For the origin of these results see patent US10919885B2, “Compounds and uses thereof” (Yumanity Therapeutics, Inc., priority 2018, dated 2021).
